The values below come from PMC7073916, “Potential Tools for Eradicating HIV Reservoirs in the Brain: Development of Trojan Horse Prodrugs for the Inhibition of P-Glycoprotein with Anti-HIV-1 Activity” (Journal of Medicinal Chemistry, 2019).

The test system of data set [1] is P-gp. The settings on record: cited from earlier work.
For another data set, the system named is HIV-1LAI. Description: HIV-1 cell inhibition assay (p24 ELISA) in infected 12D7 cells. Type of data set: cell-based. The conditions noted are these: HIV-1LAI infected 12D7 cells; 6 days; medium with drug changed after 3 days; Figure 2. As for the experimental part:
(§1) To investigate if Aba-S2-NFV1 and Aba-S2-DRV8 are effective against HIV-1 in cells, an in vitro HIV-1 titer assay was performed using the 12D7 cell line. 12D7 cells were infected with HIV-1LAI, and anti-HIV-1 activity was measured by monitoring p24 protein levels as previously described.[45],[46] First the stability of the prodrugs was monitored in PBS and cell culture media using UPLC–MS. […] Therefore, for the cell-based anti-HIV-1 experiments, the medium, with drugs, was changed every 3 days. […] (Figure 2). […] Thus, this difference in chemical connectivity leads to a difference in monomer release that may be responsible for the differences in anti-HIV-1 potency.
12D7 cells were grown in the identical medium for the cell culture medium stability studies. The cells in log-phase were pelleted and resuspended at 1 million cells per mL. 500 TCID50 HIV-1LAI was used to infect cells for 4 h using a known procedure.[45] These infected cells were plated at a density of 75 000 cells per mL in 48-well plates after three washes with the medium. Different concentrations of the compound of interest were added keeping the DMSO concentration at 0.05%. […] On the sixth day, the supernatant was analyzed using ELISA to quantify the amount of HIV-1 p24 (gag) protein generated in each sample.[46] […]
Background: An ELISA detects its analyte on a solid surface through an enzyme-linked reagent.

A short description of another data set: in vitro. Type of data set: cell-based. The conditions noted are these: human. As for the experimental part: An MTT assay was used to determine the cell toxicity of Aba-S2-NFV1 and Aba-S2-DRV8 in the 12D7-MDR cell lines after 24 h.[44]
The viability of 12D7-MDR cells in the presence of a TH heterodimer (Aba-S2-NFV1 or Aba-S2-DRV8) was measured using the standard MTT assay.[44] 20 000 12D7-MDR cells were plated in 96-well plate in 100 μL of cell medium. After 12 h, TH heterodimer in medium was added to each well to give a final concentration of 5, 10, and 20 μM (1% DMSO). After 24 h 20 μL of MTT in PBS (5 mg/mL) was added to all the wells and incubated for 2.5 h. The 96-well plates were centrifuged at 300g for 7 min, followed by careful removal of supernatant. 100 μL of DMSO was added to dissolve the formazan. The absorbance of the DMSO solution was read using a plate reader at 590 nm. Cell viability was reported as the ratio of absorbance of cells treated with TH heterodimer relative to cells treated with DMSO.

Data set [2] has as its target T1, P-gp (Homo sapiens, UniProt P08183). Description: P-gp substrate accumulation assay (flow cytometry) in hCMEC/D3 cells. The data set is classed as cell-based. From the text:
(§2) One of the goals of the designed TH heterodimers is to inhibit P-gp-mediated efflux. A substrate accumulation assay was used to evaluate the potency of Aba-S2-NFV1 and Aba-S2-DRV8 as P-gp inhibitors using the P-gp substrates calcein-AM and NBD-Aba.[38],[39] Two cell lines were used to monitor the accumulation of these fluorescent P-gp substrates: 12D7-MDR cells which are CD4+ T lymphocytes with overexpression of P-gp,[40] and hCMEC/D3 cells as an in vitro BBB model cell line.[41] hCMEC/D3 cells are an immortalized human brain capillary endothelial cell line that expresses endogenous levels of P-gp.[42],[43] Inhibition of P-gp efflux was measured by monitoring the increase in cellular fluorescence with added heterodimer by flow cytometry.
(§3) The growth of cells was maintained at 37 °C in 5% CO2. hCMEC/D3 cells were cultured according to literature protocols with minor modifications.[41]
(§4) Flow cytometry was used to estimate P-gp inhibition using a substrate accumulation assay as described previously with some minor changes.[38] […] The cells were harvested by centrifugation at 300g at 4 °C for 7 min. The supernatant was carefully removed, and 400 μL of cold, sterile PBS was added to the cell pellet. […] The mean fluorescence value for each concentration corresponded to 10 000 cells. Each sample was run in duplicate, and all the experiments were run in duplicates on two different days. The average fluorescence accumulated in the cells for samples was used to plot the mean fluorescence vs concentration, and the IC50 values were estimated using GraphPad Prism.

In data set [3] the target is T1, P-gp. Nature of the data set: P-gp substrate accumulation assay (flow cytometry) in 12D7-MDR cells. Set-up: host or cells: 12D7-MDR cells (CD4+ T lymphocytes, kept under vincristine). The conditions noted are these: for IC50: 12D7-MDR cells, 30 min, 1% DMSO. The data set is classed as cell-based.
Text: as §2, §3, §4
Background: In flow cytometry, cells or beads pass a laser one at a time.

A short description of data set [4]: Stability of prodrugs in PBS and cell culture media. The settings on record: 37 °C. Type of data set: physicochemical. As for the experimental part: as §1
The cell media stability studies for the TH heterodimers (Aba-S2-NFV1 or Aba-S2-DRV8) were carried out following a previously published protocol with some modifications.[32] Heterodimers (100 μM) were incubated at 37 °C in the cell medium used for 12D7 cells (complete RPMI 1640 medium with 50 units/mL of penicillin and 50 μg/mL streptomycin, 5 mM of L-glutamine, and 10% FBS) with 1% DMSO. Every 24 h ice-cold acetonitrile with 4-methoxybenzyl alcohol (1.0 mM) was added to an aliquot of the reaction mixture (1:1). The resultant solution was vortexed for 1 min, sonicated for 10 min, and centrifuged twice at 10 000g for 10 min each. The supernatant was stored at −80 °C. All samples were analyzed using a C8 analytical column (Phenomenex, USA) on RP-HPLC with eluent consisting of solvent A (water and 0.05% TFA) and solvent B (acetonitrile and 0.05% TFA). A gradient of 15–75% solvent B over 30 min with a flow rate of 1.2 mL/min and UV detection at 254 nm was used. The assays were performed in duplicate.

The nature of data set [5]: Reversion of TH heterodimers into monomers in a reducing environment (DTT or GSH), UPLC-MS. The conditions noted are these: ratio of t1/2 values (DTT). Type of data set: physicochemical. As for the experimental part: The breakdown of the TH heterodimers with DTT and glutathione (GSH) and the release of monomers were monitored using UPLC–MS at various time points. The reduction of the heterodimers to free thiols occurs rapidly, with full reduction observed within 1 h. Upon appearance of free thiols, the subsequent rearrangement led to the generation of the component monomeric drugs. […] This significant difference in monomer release is likely due to the differences in the chemical connectivity of the monomers. NFV, as described above, is connected to the tether via a phenolic moiety, whereas DRV is linked by a secondary alcohol. The better leaving group ability of the phenol versus the secondary alcohol likely leads to the observed difference in monomer regeneration.
Stability studies with DTT and GSH were adapted from a previously published protocol with some changes.[32] […] When monitoring NFV and DRV release, an aliquot of the reaction mixture was taken at different time points and directly analyzed by UPLC–MS. […] The time points were analyzed using RP-UPLC with a C18 column consisting of solvent A (water and 0.1% formic acid) and solvent B (acetonitrile and 0.1% formic acid), a gradient of 5–95% of solvent B over 10 min, and a flow rate of 0.5 mL/min. […]

[6] abbreviates: NBD-Aba 5 μM, 30 min, 1% DMSO, read-out: IC50, inhibition of P-gp mediated efflux of NBD-Aba.
Setting [7] is: calcein-AM 0.25 μM, 30 min, 1% DMSO, read-out: IC50, inhibition of P-gp mediated efflux of calcein-AM.
Where [8] appears, read: NBD-Aba 5 μM, read-out: IC50, inhibition of P-gp mediated efflux of NBD-Aba.
Where [9] appears, read: calcein-AM 0.25 μM, read-out: IC50, inhibition of P-gp mediated efflux of calcein-AM.

Each structure is given as a SMILES string. Like-named read-outs stand apart in the source and are kept apart here.

T1 sequence (P08183 whole entry): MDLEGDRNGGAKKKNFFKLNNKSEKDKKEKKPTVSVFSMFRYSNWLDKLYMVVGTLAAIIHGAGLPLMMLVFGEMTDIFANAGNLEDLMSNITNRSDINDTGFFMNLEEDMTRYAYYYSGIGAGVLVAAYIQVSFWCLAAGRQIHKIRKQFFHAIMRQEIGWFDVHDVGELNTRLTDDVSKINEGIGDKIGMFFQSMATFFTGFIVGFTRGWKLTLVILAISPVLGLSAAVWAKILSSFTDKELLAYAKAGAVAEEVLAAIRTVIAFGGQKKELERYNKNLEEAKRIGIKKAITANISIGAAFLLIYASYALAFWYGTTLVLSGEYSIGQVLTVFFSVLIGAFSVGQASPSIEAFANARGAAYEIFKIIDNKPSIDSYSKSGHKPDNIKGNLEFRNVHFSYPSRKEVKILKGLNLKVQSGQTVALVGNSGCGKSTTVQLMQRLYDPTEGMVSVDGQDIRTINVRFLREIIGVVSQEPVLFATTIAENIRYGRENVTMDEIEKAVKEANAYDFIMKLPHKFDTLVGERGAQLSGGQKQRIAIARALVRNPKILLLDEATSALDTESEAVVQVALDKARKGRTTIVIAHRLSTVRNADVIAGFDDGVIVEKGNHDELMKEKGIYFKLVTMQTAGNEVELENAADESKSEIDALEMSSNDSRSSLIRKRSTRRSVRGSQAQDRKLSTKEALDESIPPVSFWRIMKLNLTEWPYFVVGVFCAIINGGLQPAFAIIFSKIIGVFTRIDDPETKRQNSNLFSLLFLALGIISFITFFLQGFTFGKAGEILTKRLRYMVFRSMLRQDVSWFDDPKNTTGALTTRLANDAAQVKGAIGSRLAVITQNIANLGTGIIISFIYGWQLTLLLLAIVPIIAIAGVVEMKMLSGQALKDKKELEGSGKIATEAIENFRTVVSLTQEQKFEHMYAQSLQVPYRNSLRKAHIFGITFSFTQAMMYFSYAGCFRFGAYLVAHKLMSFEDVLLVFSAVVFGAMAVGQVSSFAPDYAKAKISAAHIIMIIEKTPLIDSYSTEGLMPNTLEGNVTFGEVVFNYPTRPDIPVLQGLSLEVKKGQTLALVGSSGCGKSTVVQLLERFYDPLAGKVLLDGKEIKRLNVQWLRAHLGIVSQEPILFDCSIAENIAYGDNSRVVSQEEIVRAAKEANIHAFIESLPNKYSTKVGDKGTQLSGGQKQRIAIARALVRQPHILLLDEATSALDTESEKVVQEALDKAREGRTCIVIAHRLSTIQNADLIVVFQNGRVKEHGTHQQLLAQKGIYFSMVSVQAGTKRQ

Turning to `Nc1nc(NC2CC2)c2ncn([C@H]3C=C[C@@H](CO)C3)c2n1` [Aba, abacavir], the “increase of brain accumulation in P-gp null mice as compared to wild-type mice” value with P-gp [1] (P-gp null mice vs wild-type mice) is on record as 20 fold.
A word on the viability: it is a read-out of living cells in per cent, often relative to untreated cells. High values mean better survival, low ones a greater loss of cells. The term IC50 denotes the concentration that inhibits the measured activity by half. With `CC(C)CN(C[C@@H](OC(=O)CCCSSCCCC(=O)OC[C@@H]1C=C[C@H](n2cnc3c(NC4CC4)nc(N)nc32)C1)[C@H](Cc1ccccc1)NC(=O)O[C@H]1CO[C@H]2OCC[C@H]21)S(=O)(=O)c1ccc(N)cc1` [Aba-S2-DRV8, abacavir-S2-darunavir-8], the “anti-HIV-1 activity (HIV-1 p24 levels)” value with HIV-1LAI is “less potent than the 1:1 mixture of Aba and DRV”. Besides, in “in vitro”, the viability at 24 h, 20 µM was 70%. Further, the IC50 is 0.09 ± 0.02 µM on P-gp [2] (setting [6]); 0.08 ± 0.02 µM at P-gp [2] (setting [7]); 0.08 to 0.09 µM at P-gp [2] (calcein-AM and NBD-Aba substrates, read-out: IC50 values, inhibition of P-gp efflux); 0.51 ± 0.08 µM at P-gp [3] (setting [8]); 0.5 ± 0.04 µM at P-gp [3] (setting [9]). For the same compound, the “stability of prodrug beyond 3 days” value in data set [4] is given as “decomposition observed after day 4”. For the same compound, in data set [4] (after 3 days), the prodrug intact result was “greater than 95%”.
Take `Cc1c(OC(=O)CCCSSCCCC(=O)OC[C@@H]2C=C[C@H](n3cnc4c(NC5CC5)nc(N)nc43)C2)cccc1C(=O)N[C@@H](CSc1ccccc1)[C@H](O)CN1C[C@H]2CCCC[C@H]2C[C@H]1C(=O)NC(C)(C)C` [Aba-S2-NFV1, abacavir-S2-nelfinavir-1]: in the data set on HIV-1LAI, the “anti-HIV-1 activity (HIV-1 p24 levels)” value was “superior potency as compared to Aba-S2-DRV8”. Further, the viability at 24 h, 20 µM in “in vitro” was greater than 95%. Besides, the IC50 at P-gp [2] (setting [6]) is 0.41 ± 0.06 µM; at P-gp [2] (setting [7]), 0.59 ± 0.07 µM; at P-gp [3] (setting [8]), 0.65 ± 0.09 µM; on P-gp [3] (setting [9]), 0.77 ± 0.05 µM. The “fold increase in inhibition of P-gp as compared to the monomeric PI (NFV or DRV)” value at P-gp [3] (ratio of IC50 values of Table 1, 12D7-MDR and hCMEC/D3 cells, calcein-AM and NBD-Aba) is given as 3- to 12 fold. Also, in data set [5], the “fold faster release of NFV from Aba-S2-NFV1 than DRV release from Aba-S2-DRV8” value was found to be 18 fold. Further, in data set [4] (after 1 week), the prodrug intact result is “greater than 95%”.
For `CC(C)CN(C[C@@H](O)[C@H](Cc1ccccc1)NC(=O)O[C@H]1CO[C@H]2OCC[C@H]21)S(=O)(=O)c1ccc(N)cc1` [DRV, darunavir, reference compound], the IC50 at P-gp [2] (setting [6]) is 15.4 ± 3.2 µM; on P-gp [2] (setting [7]) it was 6.6 ± 1.9 µM; on P-gp [3] (setting [8]), 60 ± 9.4 µM; at P-gp [3] (setting [9]), 33.2 ± 6.5 µM.
Take `Cc1c(O)cccc1C(=O)N[C@@H](CSc1ccccc1)[C@H](O)CN1C[C@H]2CCCC[C@H]2C[C@H]1C(=O)NC(C)(C)C` [NFV, nelfinavir]: the “increase of brain accumulation in P-gp null mice as compared to wild-type mice” value in the data set on P-gp [1] (mouse, not told) is recorded as 36 fold.
